US20240294572A1, “Antimicrobial Peptides” (priority 2021, published 2024)
≈ marks a conversion by molar mass, not a printed value. Non-standard residues stand in square brackets, D forms with d. Residues, ends and D or L forms follow the SMILES beside them. *: point of attachment. Myristoyl = CCCCCCCCCCCCCC(=O)*; Octanoyl = CCCCCCCC(=O)*; Hexanoyl = CCCCCC(=O)*

Key:
Assay type in all cases: cell-based
[1] = test system: E. coli ATCC 25922
Experimental: (§1) The antibacterial activity of peptides was evaluated using a standard broth microdilution protocol (Clinical Laboratories Standards Institute (CLSI): M07-A10. Methods for Dilution Antimicrobial Susceptibility Tests for Bacteria that grow aerobically; Approved Standard, Tenth Edition, 2015) with minor modifications as described (Mishra, et al. (2019) Proc. Natl. Acad. Sci., 116:13517-13522). In brief, peptides (10 μL per well) with 2-fold dilutions were made in 96-well polystyrene microplates. Subsequently, the logarithmic phase bacterial cultures (i.e., optical density at 600 nm ˜0.5) were diluted to 0.001 OD and aliquoted to 90 μL per well. The plates were incubated overnight at 37°° C. Bacterial controls were treated with water, and the wells containing only the TSB media were used as blank. Positive controls included the parent peptide LL-37 as well as KR12. Post incubation, the plates were read at 630 nm using ChroMate® 4300 Microplate Reader (Awareness Technology, FL).
(§2) To study the influence of medium conditions on the antimicrobial activity of peptides against S. aureus USA300, different pH, sodium chloride (NaCl), human sera were included into the antibacterial assays. Control experiments in TSB without any additions (pH 7.4) were set up in the same manner. In addition, antimicrobial activities of human LL-37, KR12, and C10-KR8d were compared in 10%, 50%, and 100% TSB as well as in TSB and MHB using E. coli ATCC 25922 and S. aureus USA300 LAC.

[2] = test system: Klebsiella pneumonia ATCC 13883; assay: Antibacterial broth microdilution MIC
Experimental: as §1

[3] = test system: human red blood cells (hRBCs); conditions: red cells of human, 1 h
Experimental: Hemolytic assays of peptides were performed as described (Lakshmaiah, et al. (2020) Proc. Natl. Acad. Sci., 117:19446-19454). Briefly, human red blood cells (hRBCs) were obtained from UNMC Blood Bank. The cells were washed 3× with isotonic saline (0.9% NaCl) and diluted to 2% (v/v). Peptides at various concentrations were added to the 2% blood cells and incubated at 37° C. for 1 hour. Post-incubation, the plates were spun at 2000 rpm for 10 minutes; aliquots of the supernatant were carefully transferred to a fresh 96-well microplate. The amount of cells lysed is proportional to the hemoglobin released and was measured at 545 nm using a ChroMate® microplate reader (Awareness Technology, FL). The percent lysis was calculated by assuming 100% release when human blood cells were treated with 1% Triton™ X-100, and 0% release when incubated with PBS. The peptide concentration that caused 50% lysis of hRBCs is defined as HC50. The cell selectivity index (CSI) was calculated as the ratio between HC50 and the MIC of the corresponding peptide against MRSA.

[4] = test system: S. aureus USA200
Experimental: as §1

[5] = test system: S. aureus Mu50
Experimental: as §1

[6] = test system: S. aureus USA400
Experimental: as §1

[7] = test system: S. aureus Newman
Experimental: as §1

[8] = test system: S. aureus USA300 LAC; conditions: USA300
Experimental: as §1, §2

[9] = test system: P. aeruginosa PAO1
Experimental: as §1

[10] = test system: S. aureus USA300 LAC; assay: Bacterial membrane permeation (propidium iodide); conditions: 12.5 μM
Experimental: The experiment was performed as described with minor modifications (Mishra, et al. (2019) Proc. Natl. Acad. Sci., 116:13517-13522). Serially diluted 10×peptides (10 μL each well) were created in 96-well microtiter plates. Propidium iodide (2 μL) at a fixed concentration of 20 μM was added to each well followed by 88 μL of the exponential phase S. aureus USA300 culture (a final OD600˜0.1 in TSB media or PBS). Both daptomycin (98%, TSZChem, MA) and rifamycin (98%, Alfa Aesar, MA) were used as controls. The plate was incubated at 37° C. with continuous shaking at 100 rpm in a FLUOstar® Omega (BMG LABTECH, NC) microplate reader. The samples fluorescence was read at every 5 minutes for 24 cycles with excitation and emission wavelengths of 584 and 620 nm, respectively. Plots were generated using average values from the experiments using GraphPad Prism 7.

[11] = test system: S. aureus USA300; assay: Bacterial membrane depolarization (DiBAC4(3)); conditions: 3.1, 6.25, 12.5, and 25 μM; 40 minutes
Experimental: The experiment was conducted as described (Marks, et al. (2013) PLOS One 8:e63158). In brief, an overnight culture of S. aureus USA300 was subcultured in a fresh TSB medium and grown to the exponential phase. Cells were spun using centrifugation, washed 2× with PBS, resuspended in twice the volume of PBS containing 25 mM glucose, and incubated at 37° C. for 15 minute. For membrane depolarization measurements, 500 nM (final concentration) of the dye DiBAC4 (3) bis(1,3-dibutylbarbituric acid) trimethine oxonol (ANASPEC, CA) was added, and the reaction mixture was vortexed gently. Aliquots of 90 μL of the energized bacteria solution were loaded to the wells, and the plate was fed into a FLUOstar® Omega microplate reader. Fluorescence was read for 20 minutes at excitation and emission wavelengths of 485 and 520 nm, respectively, to get dye normalization. Then, 10 μL of the peptide solution was added and gently mixed. Fluorescence readings were recorded for 40 minutes, where Triton™ X-100 (0.1%) was used as a positive control.

Row | SMILES | MIC (μM) EC [1] [µM] | MIC (μM) KP [2] [µM] | HC50 [3] [µM] | MIC (μM) SA [8] [µM] | MIC (μM) PA [9] [µM] | Minimal inhibitory concentration, USA200 [4] [µM] | Minimal inhibitory concentration, Mu50 [5] [µM] | Minimal inhibitory concentration, USA400 [6] [µM] | Minimal inhibitory concentration, Newman [7] [µM] | membrane permeation (propidium iodide fluorescence) [10] | membrane depolarization ability (order) [11]
1 | CCCCCCCC(=O)N[C@H](CCCCN)C(=O)N[C@H](CCCNC(=N)N)C(=O)N[C@@H](C(=O)N[C@H](Cc1c[nH]c2ccccc12)C(=O)N[C@H](CCC(N)=O)C(=O)N[C@H](CCCNC(=N)N)C(=O)N[C@@H](C(=O)N[C@H](CCCCN)C(=O)N[C@H](CC(=O)O)C(=O)N[C@H](Cc1ccccc1)C(N)=O)[C@H](C)CC)[C@H](C)CC [Peptide C8-KR10d] (Octanoyl-[dK][dR][dI][dW][dQ][dR][dI][dK][dD][dF]-NH2) | 6.2 (≈ 9.39 µg/mL) | 12.5 (≈ 18.9 µg/mL) | 150 | – | – | 3.1 (≈ 4.7 µg/mL) | 3.1 (≈ 4.7 µg/mL) | 3.1 (≈ 4.7 µg/mL) | 3.1 (≈ 4.7 µg/mL) | – | –
2 | CCCCCC(=O)N[C@@H](CCCCN)C(=O)N[C@@H](CCCNC(=N)N)C(=O)N[C@H](C(=O)N[C@@H](Cc1c[nH]c2ccccc12)C(=O)N[C@@H](CCC(N)=O)C(=O)N[C@@H](CCCNC(=N)N)C(=O)N[C@H](C(=O)N[C@@H](CCCCN)C(=O)N[C@@H](CC(=O)O)C(=O)N[C@@H](Cc1ccccc1)C(N)=O)[C@@H](C)CC)[C@@H](C)CC [Peptide C6-KR10] (Hexanoyl-KRIWQRIKDF-NH2) | 50 (≈ 74.3 µg/mL) | >50 | >200 | 25 (≈ 37.2 µg/mL) | 50 (≈ 74.3 µg/mL) | – | – | – | – | – | –
3 | CO[C@H]1/C=C/O[C@@]2(C)Oc3c(C)c(O)c4c(O)c(cc(O)c4c3C2=O)NC(=O)/C(C)=C\C=C\[C@H](C)[C@H](O)[C@@H](C)[C@@H](O)[C@@H](C)[C@H](OC(C)=O)[C@@H]1C [rifamycin, reference compound] | – | – | – | – | – | – | – | – | – | unable to achieve the same effect | –
4 | CCCCCCCCCCCCCC(=O)N[C@@H](CCCCN)C(=O)N[C@@H](CCCNC(=N)N)C(=O)N[C@H](C(=O)N[C@@H](Cc1c[nH]c2ccccc12)C(=O)N[C@@H](CCC(N)=O)C(=O)N[C@@H](CCCNC(=N)N)C(=O)N[C@H](C(=O)N[C@@H](CCCCN)C(N)=O)[C@@H](C)CC)[C@@H](C)CC [Peptide C14-KR8] (Myristoyl-KRIWQRIK-NH2) | 12.5 (≈ 16.7 µg/mL) | >50 | <25 | <1.5 | 6.2 (≈ 8.29 µg/mL) | – | – | – | – | – | –
5 | CCCCCCCCCCCCCC(=O)N[C@@H](CCCCN)C(=O)N[C@@H](CCCNC(=N)N)C(=O)N[C@H](C(=O)N[C@@H](Cc1c[nH]c2ccccc12)C(=O)N[C@@H](CCC(N)=O)C(=O)N[C@@H](CCCNC(=N)N)C(=O)N[C@H](C(=O)N[C@@H](CCCCN)C(=O)N[C@@H](CC(=O)O)C(=O)N[C@@H](Cc1ccccc1)C(N)=O)[C@@H](C)CC)[C@@H](C)CC [Peptide C14-KR10] (Myristoyl-KRIWQRIKDF-NH2) | 50 (≈ 80 µg/mL) | 6.2 (≈ 9.91 µg/mL) | <25 | 3.1 (≈ 4.96 µg/mL) | 12.5 (≈ 20 µg/mL) | – | – | – | – | – | –
6 | CCCCCCCC(=O)N[C@@H](CCCCN)C(=O)N[C@@H](CCCNC(=N)N)C(=O)N[C@H](C(=O)N[C@@H](Cc1c[nH]c2ccccc12)C(=O)N[C@@H](CCC(N)=O)C(=O)N[C@@H](CCCNC(=N)N)C(=O)N[C@H](C(=O)N[C@@H](CCCCN)C(N)=O)[C@@H](C)CC)[C@@H](C)CC [Peptide C8-KR8] (Octanoyl-KRIWQRIK-NH2) | 25 (≈ 31.3 µg/mL) | >50 | >200 | 6.2 (≈ 7.77 µg/mL) | 12.5 (≈ 15.7 µg/mL) | – | – | – | – | – | –
7 | CCCCCCCCCC(=O)N[C@@H](Cc1c[nH]c2ccccc12)C(=O)N[C@H](CC(N)=O)C(=O)N[C@@H](CC(=O)O)C(=O)N[C@@H]1C(=O)NCC(=O)N[C@@H](CCCN)C(=O)N[C@@H](CC(=O)O)C(=O)N[C@H](C)C(=O)N[C@@H](CC(=O)O)C(=O)NCC(=O)N[C@H](CO)C(=O)N[C@@H]([C@H](C)CC(=O)O)C(=O)N[C@@H](CC(=O)c2ccccc2N)C(=O)O[C@@H]1C [daptomycin, reference compound] | – | – | – | – | – | – | – | – | – | – | Triton™ X-100>17BIPHE2>C10-KR8d>daptomycin

The next lines start with results.

Row | MIC (μM) EC [1] [µM] | MIC (μM) KP [2] [µM] | HC50 [3] [µM] | MIC (μM) SA [8] [µM] | MIC (μM) PA [9] [µM] | SMILES | Minimal inhibitory concentration, USA200 [4] [µM] | Minimal inhibitory concentration, Mu50 [5] [µM] | Minimal inhibitory concentration, USA400 [6] [µM] | Minimal inhibitory concentration, Newman [7] [µM] | membrane permeation (propidium iodide fluorescence) [10] | membrane depolarization ability (order) [11]
8 | 50 (≈ 50.6 µg/mL) | >50 | >200 | >50 | >50 | CCCCCCCC(=O)N[C@@H](CCCCN)C(=O)N[C@@H](CCCNC(=N)N)C(=O)N[C@H](C(=O)N[C@@H](Cc1c[nH]c2ccccc12)C(=O)N[C@@H](CCC(N)=O)C(=O)N[C@@H](CCCNC(=N)N)C(N)=O)[C@@H](C)CC [Peptide C8-KR6] (Octanoyl-KRIWQR-NH2) | – | – | – | – | – | –
9 | >50 | >50 | >200 | >50 | >50 | CCCCCC(=O)N[C@@H](CCCCN)C(=O)N[C@@H](CCCNC(=N)N)C(=O)N[C@H](C(=O)N[C@@H](Cc1c[nH]c2ccccc12)C(=O)N[C@@H](CCC(N)=O)C(=O)N[C@@H](CCCNC(=N)N)C(N)=O)[C@@H](C)CC [Peptide C6-KR6] (Hexanoyl-KRIWQR-NH2) | – | – | – | – | – | –
10 | 12.5 (≈ 13.7 µg/mL) | >50 | <25 | 3.1 (≈ 3.4 µg/mL) | 6.2 (≈ 6.79 µg/mL) | CCCCCCCCCCCCCC(=O)N[C@@H](CCCCN)C(=O)N[C@@H](CCCNC(=N)N)C(=O)N[C@H](C(=O)N[C@@H](Cc1c[nH]c2ccccc12)C(=O)N[C@@H](CCC(N)=O)C(=O)N[C@@H](CCCNC(=N)N)C(N)=O)[C@@H](C)CC [Peptide C14-KR6] (Myristoyl-KRIWQR-NH2) | – | – | – | – | – | –
11 | >50 | >50 | >200 | >50 | >50 | CCCCCC(=O)N[C@@H](CCCCN)C(=O)N[C@@H](CCCNC(=N)N)C(=O)N[C@H](C(=O)N[C@@H](Cc1c[nH]c2ccccc12)C(N)=O)[C@@H](C)CC [Peptide C6-KR4] (Hexanoyl-KRIW-NH2) | – | – | – | – | – | –
